Measured values taken from patent US11465963B2, “Tetrahydronaphthalene derivatives useful as Nrf2 activators” (BIOGEN MA INC., priority 2017, dated 2022).

Key:
Assay type in all cases: cell-based
[1] = tested on: Nrf2 target genes, including GCLC, HMOX1, OSGIN1 and NQO1; assay: Gene expression (RT-PCR) in cultured human astrocytes; settings: human astrocytes treated with increasing concentrations for 20 hours
Procedure: (§1) Human astrocytes from ScienCell (cat #1820) were grown in astrocyte medium per supplier's instructions. Cells cultured for no more than two passages were plated in 96-well plates at 40,000 cells per well for gene transcription experiments and 20,000 cells per well for glutathione and cytoprotection assays.
Primary cultures of human spinal cord astrocytes were treated with compound for 20 hours. The cells were then rinsed in PBS, lysed, and processed for RNA using Ambion Taqman™ Cells-to-CT kit. The resulting cDNA was stored at −20° C. until analysis by real-time polymerase chain reaction (RT-PCR). The cDNA mixture from Cells-to-CT was diluted 5× before loading into PCR. This yields results similar to using 6 ng of purified cDNA. RT-PCR was performed on Life Technologies QuantStudio platform using OpenArray technique according to manufacturer's protocol using the following Taqman primers: […]
The comparative CT method was used to calculate fold changes using ThermoFisher Cloud software for PCR analysis. Samples were compared to vehicle control.

human astrocytes [2] = assay: Glutathione assay in cultured human astrocytes; settings: 20-hr exposure, FIG. 2
Procedure: as §1
Intracellular glutathione was measured after a 20-hr exposure to test compounds by a two-step process. First, cells were lysed and luciferin quantitatively generated from substrate, catalyzed by glutathione-S-transferase in the presence of analyte glutathione. Then luciferin was assayed using stabilized luciferase to produce a luminescent signal proportional to the concentration of glutathione (Promega GSH-Glo, cat #V6912).

human astrocytes [3] = assay: Cytoprotection of human astrocytes from sodium arsenite; settings: compound 20 hrs before 25 μM sodium arsenite, then 22 hrs, FIG. 3
Procedure: Human astrocytes from ScienCell (cat #1820) were grown in astrocyte medium per supplier's instructions. Cells cultured for no more than two passages were plated in 96-well plates at 40,000 cells per well for gene transcription experiments and 20,000 cells per well for glutathione and cytoprotection assays. Astrocytes were treated for 20 hrs as above, then the medium was removed and replaced with serum- and supplement-free growth medium with and without 25 μM sodium arsenite. After 22 hrs., cells were washed with PBS, fixed with 4% paraformaldehyde/4% sucrose in PBS, stained with 4′,6-Diamidino-2-phenylindole dihydrochloride (DAPI) and counted by quantitative fluorescence microscopy.

CC1(C)C(=O)C(C#N)=C[C@]2(C)C[C@](O)(c3ccccc3)CC[C@H]12 [Compound 24, (4aS,7S,8aS)-7-hydroxy-4,4,8a-trimethyl-3-oxo-7-phenyl-4a,5,6,8-tetrahydronaphthalene-2-carbonitrile]
transcription of GCLC ([1]; FIG. 1A): induces transcription | transcription of HMOX1 ([1]; FIG. 1B): induces transcription | transcription of OSGIN1 ([1]; FIG. 1C): induces transcription | transcription of NQO1 ([1]; FIG. 1D): induces transcription | intracellular glutathione (human astrocytes [2]): increases | protection from oxidative stress-induced cell death (human astrocytes [3]): protects
